# Reference: PMC5218480 (PLoS ONE, 2017)
# Tested on: MV-4-11 cells
# Test: Gene expression microarray analysis (Affymetrix PrimeView) and GSEA
# Format: cell-based, human
# Parameters: RFU PODN (11730768_x_at) / Fold change /veh PODN (11730768_x_at) / RFU LINC00158 (11744669_a_at) / Fold change /veh LINC00158 (11744669_a_at) / RFU DUSP10 (11751237_a_at) / Fold change /veh DUSP10 (11751237_a_at) / RFU ID3 (11757404_x_at) / Fold change /veh ID3 (11757404_x_at) / RFU PLEKHG5 (11737974_s_at) / Fold change /veh PLEKHG5 (11737974_s_at) / RFU LRRC4B (11730491_at) / Fold change /veh LRRC4B (11730491_at) / RFU GIMAP4 (11747438_a_at) / Fold change /veh GIMAP4 (11747438_a_at) / RFU KRT8 (11758183_x_at) / Fold change /veh KRT8 (11758183_x_at) / RFU CNN1 (11734310_a_at) / Fold change /veh CNN1 (11734310_a_at) / RFU VPS37D (11726825_at) / Fold change /veh VPS37D (11726825_at) / RFU C10orf10 (11716522_x_at) / Fold change /veh C10orf10 (11716522_x_at) / RFU KIR2DL2 /// KIR2DL4 /// KIR2DL5A /// KIR2DL5B /// KIR2DS1 /// KIR2DS2 /// KIR2DS3 /// KIR2DS4 /// KIR3DL3 /// KIR3DL3 /// KIR3DS1 (11738374_at) / Fold change /veh KIR2DL2 /// KIR2DL4 /// KIR2DL5A /// KIR2DL5B /// KIR2DS1 /// KIR2DS2 /// KIR2DS3 /// KIR2DS4 /// KIR3DL3 /// KIR3DL3 /// KIR3DS1 (11738374_at) / RFU C1QL1 (11718748_at) / Fold change /veh C1QL1 (11718748_at) / RFU TMPRSS4 (11747572_a_at) / Fold change /veh TMPRSS4 (11747572_a_at) / RFU HAMP (11756126_x_at) / Fold change /veh HAMP (11756126_x_at) / RFU RNFT2 (11725882_a_at) / Fold change /veh RNFT2 (11725882_a_at) / RFU NR4A2 (11747474_a_at) / Fold change /veh NR4A2 (11747474_a_at) / RFU ABCC12 (11746883_a_at) / Fold change /veh ABCC12 (11746883_a_at) / RFU TMEM136 (11760407_x_at) / Fold change /veh TMEM136 (11760407_x_at) / RFU CLDN22 /// WWC2 (11732394_at) / Fold change /veh CLDN22 /// WWC2 (11732394_at) / RFU HLA-DPB1 (11760878_x_at) / Fold change /veh HLA-DPB1 (11760878_x_at) / RFU SPINT1 (11716480_a_at) / Fold change /veh SPINT1 (11716480_a_at) / RFU GAP43 (11754022_s_at) / Fold change /veh GAP43 (11754022_s_at) / RFU A4GNT (11735810_at) / Fold change /veh A4GNT (11735810_at) / RFU PRB3 (11715151_x_at) / Fold change /veh PRB3 (11715151_x_at) / RFU TUBB4B (11761932_at) / Fold change /veh TUBB4B (11761932_at) / RFU CAPN14 (11732068_a_at) / Fold change /veh CAPN14 (11732068_a_at) / RFU TMCC2 (11721928_a_at) / Fold change /veh TMCC2 (11721928_a_at) / RFU IRGQ (11745062_a_at) / Fold change /veh IRGQ (11745062_a_at) / RFU FAM174B (11720279_a_at) / Fold change /veh FAM174B (11720279_a_at) / RFU TMPRSS4 (11748680_a_at) / Fold change /veh TMPRSS4 (11748680_a_at) / RFU FAM212B (11763350_a_at) / Fold change /veh FAM212B (11763350_a_at) / RFU PLEKHG5 (11743358_a_at) / Fold change /veh PLEKHG5 (11743358_a_at) / RFU ZSCAN30 (11745921_a_at) / Fold change /veh ZSCAN30 (11745921_a_at) / RFU CMKLR1 (11741424_a_at) / Fold change /veh CMKLR1 (11741424_a_at) / RFU LOC101060620 /// MAPK8IP1 (11723275_at) / Fold change /veh LOC101060620 /// MAPK8IP1 (11723275_at) / RFU SPTSSB (11747773_x_at) / Fold change /veh SPTSSB (11747773_x_at) / RFU PRSS12 (11739890_at) / Fold change /veh PRSS12 (11739890_at) / RFU BIN1 (11741810_x_at) / Fold change /veh BIN1 (11741810_x_at) / RFU WNT11 (11732464_a_at) / Fold change /veh WNT11 (11732464_a_at) / RFU C10orf10 (11716521_a_at) / Fold change /veh C10orf10 (11716521_a_at) / RFU C5orf56 (11738089_at) / Fold change /veh C5orf56 (11738089_at) / RFU CYB561 (11721691_x_at) / Fold change /veh CYB561 (11721691_x_at) / RFU ANKRD19P (11752326_a_at) / Fold change /veh ANKRD19P (11752326_a_at) / RFU OR2T12 /// OR2T33 /// OR2T8 (11738714_s_at) / Fold change /veh OR2T12 /// OR2T33 /// OR2T8 (11738714_s_at) / RFU VCAN (11748164_a_at) / Fold change /veh VCAN (11748164_a_at) / RFU JSRP1 (11732532_at) / Fold change /veh JSRP1 (11732532_at) / RFU KRTAP10-11 (11738290_x_at) / Fold change /veh KRTAP10-11 (11738290_x_at) / RFU MYO3A (11730013_a_at) / Fold change /veh MYO3A (11730013_a_at) / RFU EBF3 (11725865_a_at) / Fold change /veh EBF3 (11725865_a_at) / RFU CAMK2N1 (11719241_x_at) / Fold change /veh CAMK2N1 (11719241_x_at) / RFU C5orf56 (11738088_a_at) / Fold change /veh C5orf56 (11738088_a_at) / RFU OLFML3 (11715873_a_at) / Fold change /veh OLFML3 (11715873_a_at) / RFU LOC100653217 /// NTM (11731650_a_at) / Fold change /veh LOC100653217 /// NTM (11731650_a_at) / RFU MAPK11 (11762145_a_at) / Fold change /veh MAPK11 (11762145_a_at) / RFU FIZ1 (11724087_x_at) / Fold change /veh FIZ1 (11724087_x_at) / RFU OASL (11726364_x_at) / Fold change /veh OASL (11726364_x_at) / RFU SOX15 (11748057_x_at) / Fold change /veh SOX15 (11748057_x_at) / RFU CD79A (11719716_a_at) / Fold change /veh CD79A (11719716_a_at) / RFU HIST1H1D (11736915_at) / Fold change /veh HIST1H1D (11736915_at) / RFU CASKIN2 (11723855_a_at) / Fold change /veh CASKIN2 (11723855_a_at) / RFU LOC730098 (11760151_x_at) / Fold change /veh LOC730098 (11760151_x_at) / RFU OR4N2 (11742367_at) / Fold change /veh OR4N2 (11742367_at) / RFU PRRT2 (11749266_a_at) / Fold change /veh PRRT2 (11749266_a_at) / RFU SNX32 (11753110_a_at) / Fold change /veh SNX32 (11753110_a_at) / RFU CDHR5 (11726645_a_at) / Fold change /veh CDHR5 (11726645_a_at) / RFU RCAN1 (11760418_a_at) / Fold change /veh RCAN1 (11760418_a_at) / RFU FAM167A (11723789_a_at) / Fold change /veh FAM167A (11723789_a_at) / RFU FAM26E (11764081_at) / Fold change /veh FAM26E (11764081_at) / RFU ISYNA1 (11749810_s_at) / Fold change /veh ISYNA1 (11749810_s_at) / RFU ACY1 (11761880_at) / Fold change /veh ACY1 (11761880_at) / RFU 11764098_at / Fold change /veh 11764098_at / RFU SAMD14 (11745864_x_at) / Fold change /veh SAMD14 (11745864_x_at) / RFU NPB (11741838_a_at) / Fold change /veh NPB (11741838_a_at) / RFU TMPRSS6 (11731388_a_at) / Fold change /veh TMPRSS6 (11731388_a_at) / RFU KRTAP10-2 (11738614_at) / Fold change /veh KRTAP10-2 (11738614_at) / RFU ARHGAP8 /// PRR5-ARHGAP8 (11727945_x_at) / Fold change /veh ARHGAP8 /// PRR5-ARHGAP8 (11727945_x_at) / RFU KRTAP5-7 /// NADSYN1 (11734609_at) / Fold change /veh KRTAP5-7 /// NADSYN1 (11734609_at) / RFU RASL12 (11751679_a_at) / Fold change /veh RASL12 (11751679_a_at) / RFU CDKN2B (11736163_a_at) / Fold change /veh CDKN2B (11736163_a_at) / RFU PRF1 (11729649_at) / Fold change /veh PRF1 (11729649_at) / RFU, ZNF638 /// ZNF638-IT1 / Fold change vs veh, ZNF638 /// ZNF638-IT1 / RFU, PANK3 / Fold change vs veh, PANK3 / RFU, SH3YL1 / Fold change vs veh, SH3YL1 / RFU, ZEB2 / Fold change vs veh, ZEB2 / RFU, NRIP1 / Fold change vs veh, NRIP1 / RFU, PTTG1IP / Fold change vs veh, PTTG1IP / RFU, CAPN2 / Fold change vs veh, CAPN2 / RFU, MED14 / Fold change vs veh, MED14 / RFU, SNORA58 / Fold change vs veh, SNORA58 / RFU, C1orf63 / Fold change vs veh, C1orf63 / RFU, LRRFIP1 / Fold change vs veh, LRRFIP1 / RFU, NDUFAF7 / Fold change vs veh, NDUFAF7 / RFU, SLC12A2 / Fold change vs veh, SLC12A2 / RFU, IBTK / Fold change vs veh, IBTK / RFU, ESF1 / Fold change vs veh, ESF1 / Fold change vs veh, TMEM50B / RFU, TAOK1 / Fold change vs veh, TAOK1 / RFU, ACBD3 / Fold change vs veh, ACBD3 / RFU, TMA16 / Fold change vs veh, TMA16 / RFU, RWDD3 / Fold change vs veh, RWDD3 / RFU, BCAT1 / Fold change vs veh, BCAT1 / RFU, EDEM3 / Fold change vs veh, EDEM3 / RFU, TMEM33 / Fold change vs veh, TMEM33 / RFU, WDR75 / Fold change vs veh, WDR75 / RFU, AHCTF1 / Fold change vs veh, AHCTF1 / RFU, TFRC / Fold change vs veh, TFRC / RFU, ZDHHC17 / Fold change vs veh, ZDHHC17 / RFU, NOM1 / Fold change vs veh, NOM1 / RFU, ARL8B / Fold change vs veh, ARL8B / RFU, ZBTB11 / Fold change vs veh, ZBTB11 / RFU, TAMM41 / Fold change vs veh, TAMM41 / RFU, KIAA1704 /// LOC100996395 / Fold change vs veh, KIAA1704 /// LOC100996395 / RFU, ING1 / Fold change vs veh, ING1 / RFU, TRMT61B / Fold change vs veh, TRMT61B / RFU, FUBP3 / Fold change vs veh, FUBP3 / RFU, TP53 / Fold change vs veh, TP53 / RFU, TNKS2 / Fold change vs veh, TNKS2 / RFU, ZFP14 / Fold change vs veh, ZFP14 / RFU, ACTR2 / Fold change vs veh, ACTR2 / RFU, PPP3R1 / Fold change vs veh, PPP3R1 / RFU, PIK3R1 / Fold change vs veh, PIK3R1 / RFU, HNRNPA1 / Fold change vs veh, HNRNPA1 / RFU, RNF170 / Fold change vs veh, RNF170 / RFU, ZNF28 / Fold change vs veh, ZNF28 / RFU, RNGTT / Fold change vs veh, RNGTT / RFU, OGT / Fold change vs veh, OGT / RFU, BRD1 / Fold change vs veh, BRD1 / RFU, MARS / Fold change vs veh, MARS / RFU, ZNF655 / Fold change vs veh, ZNF655 / RFU, FAHD1 / Fold change vs veh, FAHD1 / RFU, BDP1 / Fold change vs veh, BDP1 / RFU, LRRCC1 / Fold change vs veh, LRRCC1 / RFU, ARID1A / Fold change vs veh, ARID1A / RFU, ZNF146 / Fold change vs veh, ZNF146 / RFU, ZNF330 / Fold change vs veh, ZNF330 / RFU, GPN3 / Fold change vs veh, GPN3 / RFU, C9orf123 / Fold change vs veh, C9orf123 / RFU, N4BP2L2 / Fold change vs veh, N4BP2L2 / RFU, ARFIP1 / Fold change vs veh, ARFIP1 / RFU, FAM179B / Fold change vs veh, FAM179B / RFU, BCL10 / Fold change vs veh, BCL10 / RFU, UHRF1BP1L / Fold change vs veh, UHRF1BP1L / RFU, BET1 / Fold change vs veh, BET1 / RFU, CNOT2 / Fold change vs veh, CNOT2 / RFU, ZNF268 / Fold change vs veh, ZNF268 / Fold change vs veh, ZNF507 / RFU, DGCR2 / Fold change vs veh, DGCR2 / RFU, WDSUB1 / Fold change vs veh, WDSUB1 / Fold change vs veh, HSP90B1 /// MIR3652 / RFU, ADSS / Fold change vs veh, ADSS / RFU, GK / Fold change vs veh, GK / RFU, ZNF148 / Fold change vs veh, ZNF148 / RFU, TAF9 / Fold change vs veh, TAF9 / RFU, SLC1A5 / Fold change vs veh, SLC1A5 / RFU, SLMO2 / Fold change vs veh, SLMO2 / RFU, ABCC4 / Fold change vs veh, ABCC4 / RFU, LOC101060439 /// RAP1B / Fold change vs veh, LOC101060439 /// RAP1B / RFU, RFX7 / Fold change vs veh, RFX7 / RFU, GTPBP10 / Fold change vs veh, GTPBP10 / RFU, CNEP1R1 / Fold change vs veh, CNEP1R1 / RFU, BIVM-ERCC5 /// ERCC5 / Fold change vs veh, BIVM-ERCC5 /// ERCC5 / RFU, ILF3 / Fold change vs veh, ILF3 / RFU 11762660_at / Fold change /veh 11762660_at / RFU VCAN (11757783_s_at) / Fold change /veh VCAN (11757783_s_at) / RFU DDX43 (11728927_at) / Fold change /veh DDX43 (11728927_at) / RFU KRT8 (11758188_x_at) / Fold change /veh KRT8 (11758188_x_at) / RFU NKD1 (11759106_at) / Fold change /veh NKD1 (11759106_at) / RFU SRD5A1 (11742802_a_at) / Fold change /veh SRD5A1 (11742802_a_at) / RFU TPSAB1 /// TPSB2 (11721975_s_at) / Fold change /veh TPSAB1 /// TPSB2 (11721975_s_at) / RFU GSTM3 (11746129_a_at) / Fold change /veh GSTM3 (11746129_a_at) / RFU IL23R (11737362_x_at) / Fold change /veh IL23R (11737362_x_at) / RFU TMEM51 (11727254_a_at) / Fold change /veh TMEM51 (11727254_a_at) / RFU PIWIL2 (11732686_x_at) / Fold change /veh PIWIL2 (11732686_x_at) / RFU ORM1 (11744905_x_at) / Fold change /veh ORM1 (11744905_x_at) / RFU CCDC152 (11743942_at) / Fold change /veh CCDC152 (11743942_at) / RFU ECM1 (11717891_a_at) / Fold change /veh ECM1 (11717891_a_at) / RFU IL23R (11748794_a_at) / Fold change /veh IL23R (11748794_a_at) / RFU TNFAIP8L3 (11732012_x_at) / Fold change /veh TNFAIP8L3 (11732012_x_at) / RFU MBOAT4 (11741988_at) / Fold change /veh MBOAT4 (11741988_at) / RFU 11764193_at / Fold change /veh 11764193_at / RFU TMEM53 (11763286_at) / Fold change /veh TMEM53 (11763286_at) / RFU MAGEB2 (11727129_at) / Fold change /veh MAGEB2 (11727129_at) / RFU TMEM200A (11744735_a_at) / Fold change /veh TMEM200A (11744735_a_at) / RFU CCDC152 (11751479_a_at) / Fold change /veh CCDC152 (11751479_a_at) / RFU FAM211A (11726209_a_at) / Fold change /veh FAM211A (11726209_a_at) / RFU RGS16 (11746705_a_at) / Fold change /veh RGS16 (11746705_a_at) / RFU VCAN (11755009_s_at) / Fold change /veh VCAN (11755009_s_at) / RFU RHOB (11743442_s_at) / Fold change /veh RHOB (11743442_s_at) / RFU RGS16 (11720943_a_at) / Fold change /veh RGS16 (11720943_a_at) / RFU RGS16 (11720944_at) / Fold change /veh RGS16 (11720944_at) / RFU, VPS4B / Fold change vs veh, VPS4B / RFU, CREB1 / Fold change vs veh, CREB1 / RFU, DNAJC13 / Fold change vs veh, DNAJC13 / RFU, GNAQ / Fold change vs veh, GNAQ / RFU, CDK5R1 / Fold change vs veh, CDK5R1 / RFU, ZRANB3 / Fold change vs veh, ZRANB3 / RFU, CUL4A / Fold change vs veh, CUL4A / RFU, CCNY / Fold change vs veh, CCNY / RFU, UFL1 / Fold change vs veh, UFL1 / RFU, COG3 / Fold change vs veh, COG3 / RFU, DIAPH2 / Fold change vs veh, DIAPH2 / RFU, SKA2 / Fold change vs veh, SKA2 / RFU, AFF3 / Fold change vs veh, AFF3 / RFU, LMF1 / Fold change vs veh, LMF1 / RFU, IPO11 / Fold change vs veh, IPO11 / RFU, DFFB / Fold change vs veh, DFFB / RFU, FOXP1 / Fold change vs veh, FOXP1 / RFU, CARD8 / Fold change vs veh, CARD8 / RFU, STRN3 / Fold change vs veh, STRN3 / RFU, ADK / Fold change vs veh, ADK / RFU, RASSF2 / Fold change vs veh, RASSF2 / RFU, WIPF1 / Fold change vs veh, WIPF1 / RFU, LARP1B / Fold change vs veh, LARP1B / RFU, RASA1 / Fold change vs veh, RASA1 / RFU, RB1 / Fold change vs veh, RB1 / RFU, PPFIA1 / Fold change vs veh, PPFIA1 / RFU, MAT2A / Fold change vs veh, MAT2A / RFU, CCT5 / Fold change vs veh, CCT5 / RFU, WDR92 / Fold change vs veh, WDR92 / RFU, CUX1 / Fold change vs veh, CUX1 / RFU, TTC7A / Fold change vs veh, TTC7A / RFU, TMEM135 / Fold change vs veh, TMEM135 / RFU, DEPTOR / Fold change vs veh, DEPTOR / RFU, CPM / Fold change vs veh, CPM / RFU, DNAJB6 / Fold change vs veh, DNAJB6 / RFU, CACNA2D3 / Fold change vs veh, CACNA2D3 / RFU, DTX4 / Fold change vs veh, DTX4 / RFU, TFCP2 / Fold change vs veh, TFCP2 / RFU, GMCL1 /// GMCL1P1 / Fold change vs veh, GMCL1 /// GMCL1P1 / RFU, AEBP2 / Fold change vs veh, AEBP2 / RFU, SNHG1 /// SNORD22 /// SNORD25 /// SNORD26 /// SNORD27 /// SNORD28 /// SNORD29 /// SNORD31 / Fold change vs veh, SNHG1 /// SNORD22 /// SNORD25 /// SNORD26 /// SNORD27 /// SNORD28 /// SNORD29 /// SNORD31 / Fold change (Aza/veh), C12orf56 (ProbeSet 11735607_a_at) / Fold change (ACY-1035/veh), C12orf56 (ProbeSet 11735607_a_at) / Fold change (Aza/veh), FGFR1OP (ProbeSet 11751329_s_at) / Fold change (ACY-1035/veh), FGFR1OP (ProbeSet 11751329_s_at) / Fold change (Aza/veh), VPS36 (ProbeSet 11739960_a_at) / Fold change (ACY-1035/veh), VPS36 (ProbeSet 11739960_a_at) / RFU SYPL1 (11715823_x_at) / Fold change /veh SYPL1 (11715823_x_at) / RFU IGFBP7 (11715501_s_at) / Fold change /veh IGFBP7 (11715501_s_at) / RFU REEP3 (11722064_at) / Fold change /veh REEP3 (11722064_at) / RFU IGLL1 (11728026_x_at) / Fold change /veh IGLL1 (11728026_x_at): dose or concentration left out as unconfirmed
# Settings: ProbeSet 11745789_a_at; LIST D
smiles,measurement,value
Nc1ncn([C@@H]2O[C@H](CO)[C@@H](O)[C@H]2O)c(=O)n1 [azacitidine],"RFU, TMEM135",108.05 RFU
